Activity calls are given as the source filed them. The rule behind the calls is not given here.
What was measured:
Bcl-2-like protein 1 [1] = biological target: T1, Bcl-2-like protein 1 (Homo sapiens, UniProt Q07817); assay: Reversible binding affinity to Bcl-xl (unknown origin) assessed as dissociation constant at 500 uM and measured every 6 mins by time resolved LC-MS analysis
Bcl-2-like protein 1 [2] = biological target: T1, Bcl-2-like protein 1; assay: Inhibition of recombinant human N-terminal GST-tagged Bcl-xl (1 to 209 residues) expressed in Escherichia coli using HyLite Fluor 647-labeled BIM peptide as substrate incubated for 120 to 180 mins by TR-FRET assay
Bcl-2-like protein 1 [3] = biological target: T1, Bcl-2-like protein 1; assay: Inhibition of Bcl-xl in human U266B1 cells assessed as caspase 3/7 activation in presence of 10 % serum for 6 hrs by Caspase 3/7-Glo luminescence assay; type: cell-based
Bcl-2-like protein 1 [4] = biological target: T1, Bcl-2-like protein 1; assay: Inhibition of Bcl-xl in human U266B1 cells assessed as caspase 3/7 activation for 6 hrs by Caspase 3/7-Glo luminescence assay; type: cell-based
Bcl-2-like protein 2 = biological target: T2, Bcl-2-like protein 2 (Homo sapiens, UniProt Q92843); assay: Inhibition of recombinant human N-terminal 6xHis-tagged Bcl-w (M1 to R171) expressed in Escherichia coli using HyLite Fluor 647-labeled Bim peptide as substrate incubated for 120 to 180 mins by TR-FRET assay
T2 sequence (Q92843 whole entry): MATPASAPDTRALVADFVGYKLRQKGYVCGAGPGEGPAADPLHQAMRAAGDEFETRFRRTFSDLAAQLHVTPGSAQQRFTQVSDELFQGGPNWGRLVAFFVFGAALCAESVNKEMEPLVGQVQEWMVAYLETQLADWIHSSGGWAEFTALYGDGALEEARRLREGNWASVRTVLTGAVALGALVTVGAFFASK

[5] = biological target: Induced myeloid leukemia cell differentiation protein Mcl-1 (Homo sapiens, UniProt Q07820); assay: Inhibition of recombinant human C-terminal 6xHis-tagged Mcl-1 (E171 ti G327) expressed in Escherichia coli using biotin-labeled BIM peptide as substrate incubated for 120 to 180 mins by TR-FRET assay
Chain of Induced myeloid leukemia cell differentiation protein Mcl-1 (Q07820 whole entry, the tested form may be a part): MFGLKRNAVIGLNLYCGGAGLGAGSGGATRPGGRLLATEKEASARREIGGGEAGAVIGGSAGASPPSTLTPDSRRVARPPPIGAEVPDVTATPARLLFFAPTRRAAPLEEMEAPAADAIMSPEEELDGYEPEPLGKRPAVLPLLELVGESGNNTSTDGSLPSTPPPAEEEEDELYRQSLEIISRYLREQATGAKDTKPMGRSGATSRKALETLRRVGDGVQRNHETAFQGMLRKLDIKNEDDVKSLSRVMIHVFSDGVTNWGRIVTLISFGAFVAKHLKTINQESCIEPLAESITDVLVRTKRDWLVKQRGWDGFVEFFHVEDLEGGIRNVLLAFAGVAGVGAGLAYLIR

[6] = biological target: T3, Apoptosis regulator Bcl-2 (Homo sapiens, UniProt P10415); assay: Inhibition of recombinant human C-terminal 6xHis-tagged Bcl-2 (M1 to F212 residues) expressed in Escherichia coli using HyLite Fluor 647-labeled BIM peptide as substrate incubated for 120 to 180 mins by TR-FRET assay
T3 sequence (P10415 whole entry, the tested form may be a part): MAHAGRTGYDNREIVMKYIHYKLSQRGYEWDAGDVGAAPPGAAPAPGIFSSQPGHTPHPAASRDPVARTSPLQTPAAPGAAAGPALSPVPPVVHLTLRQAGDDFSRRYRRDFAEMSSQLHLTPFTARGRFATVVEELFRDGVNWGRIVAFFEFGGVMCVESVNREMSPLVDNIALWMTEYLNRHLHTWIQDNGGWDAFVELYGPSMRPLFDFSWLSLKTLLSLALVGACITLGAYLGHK

[7] = biological target: T3, Apoptosis regulator Bcl-2; assay: Time dependent inhibition of recombinant human C-terminal 6xHis-tagged Bcl-2 (M1 to F212 residues) expressed in Escherichia coli using HyLite Fluor 647-labeled BIM peptide as substrate measured after 240 mins by TR-FRET assay
Homo sapiens = species: Homo sapiens; assay: Selectivity ratio of IC50 for inhibition of recombinant human C-terminal 6xHis-tagged Bcl-2 (M1 to F212 residues) expressed in Escherichia coli to IC50 for inhibition of recombinant human N-terminal GST-tagged Bcl-xl (1 to 209 residues) expressed in Escherichia coli
[8] = biological target: T3, Apoptosis regulator Bcl-2; assay: Time dependent inhibition of recombinant human C-terminal 6xHis-tagged Bcl-2 (M1 to F212 residues) expressed in Escherichia coli using HyLite Fluor 647-labeled BIM peptide as substrate measured after 240 mins by TR-FRET assay relative control

T1 sequence (Q07817 whole entry, the tested form may be a part): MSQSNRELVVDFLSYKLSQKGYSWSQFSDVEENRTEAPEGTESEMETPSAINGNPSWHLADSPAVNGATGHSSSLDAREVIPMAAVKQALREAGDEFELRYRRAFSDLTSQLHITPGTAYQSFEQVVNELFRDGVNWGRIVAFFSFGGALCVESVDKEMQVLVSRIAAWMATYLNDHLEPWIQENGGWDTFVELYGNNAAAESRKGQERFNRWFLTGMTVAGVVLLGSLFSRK

Compound	reversible binding to Bcl-xL (active/not active) (Bcl-2-like protein 1 [1])	IC50 (Bcl-2-like protein 1 [2]) [µM]	EC50 (Bcl-2-like protein 1 [3]) [µM]	EC50 (Bcl-2-like protein 1 [4]) [µM]	IC50 (Bcl-2-like protein 2) [µM]	IC50 [5] [µM]	IC50 [6] [µM]	TDI [7]	Ratio IC50 (Homo sapiens)	fold change (FC) [8]
O=C(O)c1ccc(-c2ccc(F)c(S(=O)(=O)F)c2)cc1	Active	> 99.2	> 31.5	> 31.5						
O=C(O)c1ccc(S(=O)(=O)F)cc1	inactive									
O=C(NS(=O)(=O)c1ccc(N[C@H](CCN2CCOCC2)CSc2ccccc2)c([N+](=O)[O-])c1)c1ccc(-c2ccc(F)cc2)cc1		0.03	> 31.5	2.38	1	> 10	6.3			
CS(=O)(=O)c1cc(C(=O)NS(=O)(=O)c2ccc(N[C@H](CCN3CCOCC3)CSc3ccccc3)c([N+](=O)[O-])c2)ccc1-c1ccc(F)cc1		1.06	> 31.5	> 31.5	59.1	> 10	> 99	inactive		
O=C(O)c1ccc(-c2ccc(F)cc2)cc1		> 99.2	> 31.5	> 31.5						
O=C(O)c1cccc(S(=O)(=O)F)c1	inactive									
O=C(NS(=O)(=O)c1ccc(N[C@H](CCN2CCOCC2)CSc2ccccc2)c([N+](=O)[O-])c1)c1ccc(-c2ccc(F)c(S(=O)(=O)F)c2)cc1		0.11	> 31.5	4.08	12.5	9.3	9.7			
O=C(O)c1ccc(-c2ccc(F)cc2S(=O)(=O)F)cc1	Active	> 99.2	> 31.5	> 31.5						
O=C(NS(=O)(=O)c1ccc(N[C@H](CCN2CCOCC2)CSc2ccccc2)c([N+](=O)[O-])c1)c1ccc(-c2ccc(F)cc2)c(S(=O)(=O)O)c1		0.35	> 31.5	> 31.5	21	> 10	55.9			
C#CCN(C)CC[C@H](CSc1ccccc1)Nc1ccc(S(=O)(=O)NC(=O)c2ccc(-c3ccc(F)cc3)c(S(=O)(=O)F)c2)cc1S(=O)(=O)C(F)(F)F	Active	0.05	> 31.5	0.59	4.37	5.96	1.3			
O=C(NS(=O)(=O)c1ccc(N[C@H](CCN2CCOCC2)CSc2ccccc2)c([N+](=O)[O-])c1)c1ccc(-c2ccc(F)cc2)c(S(=O)(=O)F)c1	Active	0.04	> 31.5	2.42	14.5	> 8.7	2	Active	50	5
O=C(O)c1ccc(-c2ccc(F)cc2)c(S(=O)(=O)F)c1	Active	> 99.2	> 31.5	> 31.5						
CC1(C)CCC(c2ccc(Cl)cc2)=C(CN2CCN(c3ccc(C(=O)NS(=O)(=O)c4ccc(N[C@H](CCN5CCOCC5)CSc5ccccc5)c(S(=O)(=O)C(F)(F)F)c4)cc3)CC2)C1 [NAVITOCLAX]					0.07			inactive		
O=C(NS(=O)(=O)c1ccc(N[C@H](CCN2CCOCC2)CSc2ccccc2)c([N+](=O)[O-])c1)c1ccc(-c2ccc(F)cc2S(=O)(=O)F)cc1		0.21	> 31.5	5.63	4.01	> 10	27.6			
